According to ChEMBL document CHEMBL1909046, “DrugMatrix in vitro pharmacology data”:

Legend:
[1] = DRUGMATRIX: Calcium Channel Type L, Dihydropyridine radioligand binding (ligand: [3H] Nitrendipine); assay type: cell membranes, Rattus norvegicus, Wistar, Cerebral cortex, Membrane; details: Not Active = under 50% inhibition at 10 µM
[2] = DRUGMATRIX: GABAA, Flunitrazepam, Central radioligand binding (ligand: [3H] Flunitrazepam); assay type: cell membranes, Rattus norvegicus, Wistar, Brain, Membrane; details: Not Active = under 50% inhibition at 10 µM
[3] = biological target: Mu-type opioid receptor (Homo sapiens, UniProt P35372); test: DRUGMATRIX: Opiate mu (OP3, MOP) radioligand binding (ligand: [3H] Diprenorphine); assay type: cell membranes, CHO-K1, Membrane; details: Not Active = under 50% inhibition at 10 µM
Chain of Mu-type opioid receptor (P35372 whole entry): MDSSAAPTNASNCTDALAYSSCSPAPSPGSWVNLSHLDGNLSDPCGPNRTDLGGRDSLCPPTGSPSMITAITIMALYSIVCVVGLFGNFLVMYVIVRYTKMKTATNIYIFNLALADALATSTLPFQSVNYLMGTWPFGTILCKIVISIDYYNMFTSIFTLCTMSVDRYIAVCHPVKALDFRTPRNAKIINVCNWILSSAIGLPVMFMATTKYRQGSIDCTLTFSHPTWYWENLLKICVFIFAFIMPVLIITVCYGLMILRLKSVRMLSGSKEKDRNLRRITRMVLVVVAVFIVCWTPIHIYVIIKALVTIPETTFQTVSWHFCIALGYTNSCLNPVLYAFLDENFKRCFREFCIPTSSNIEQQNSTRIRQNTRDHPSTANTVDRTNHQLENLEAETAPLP

[4] = biological target: T1, Caspase-1 (Homo sapiens, UniProt P29466); set-up: species or system Escherichia coli;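 further: Caspase-1 enzyme inhibition assay with a peptide substrate; in other assays of this panel Not Active means under 50% inhibition at 10 µM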
T1 sequence (P29466 whole entry): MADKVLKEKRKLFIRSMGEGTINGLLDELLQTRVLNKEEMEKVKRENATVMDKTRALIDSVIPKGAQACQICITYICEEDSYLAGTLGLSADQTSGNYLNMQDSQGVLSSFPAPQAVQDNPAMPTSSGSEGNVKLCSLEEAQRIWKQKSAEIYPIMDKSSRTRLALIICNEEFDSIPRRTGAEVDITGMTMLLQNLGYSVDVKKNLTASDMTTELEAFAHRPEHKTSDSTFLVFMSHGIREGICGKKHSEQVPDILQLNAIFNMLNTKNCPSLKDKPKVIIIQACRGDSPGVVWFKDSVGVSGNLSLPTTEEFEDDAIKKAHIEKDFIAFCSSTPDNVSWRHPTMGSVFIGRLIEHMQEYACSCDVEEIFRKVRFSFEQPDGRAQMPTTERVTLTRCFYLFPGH

[5] = biological target: Tyrosine-protein kinase Lck (Homo sapiens, UniProt P06239); test: DRUGMATRIX: Protein Tyrosine Kinase, LCK enzyme inhibition (substrate: Poly(Glu:Tyr)); assay type: cell-based, Insect cells; details: Not Active = under 50% inhibition at 10 µM
Chain of Tyrosine-protein kinase Lck (P06239 whole entry): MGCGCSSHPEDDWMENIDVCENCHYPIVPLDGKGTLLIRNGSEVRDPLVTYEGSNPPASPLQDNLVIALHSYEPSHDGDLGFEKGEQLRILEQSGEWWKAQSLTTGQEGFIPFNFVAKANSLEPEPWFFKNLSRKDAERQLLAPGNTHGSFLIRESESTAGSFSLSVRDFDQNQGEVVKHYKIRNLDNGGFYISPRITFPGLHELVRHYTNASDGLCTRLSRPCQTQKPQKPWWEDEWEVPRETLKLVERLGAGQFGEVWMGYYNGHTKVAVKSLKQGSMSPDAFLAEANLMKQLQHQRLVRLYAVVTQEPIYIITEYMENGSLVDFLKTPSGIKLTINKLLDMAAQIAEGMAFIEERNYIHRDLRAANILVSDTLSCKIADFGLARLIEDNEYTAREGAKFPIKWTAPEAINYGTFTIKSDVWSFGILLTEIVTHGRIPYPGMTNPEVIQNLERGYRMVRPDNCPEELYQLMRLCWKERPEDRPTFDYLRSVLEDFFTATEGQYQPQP

Row | Compound | IC50 [1] | Ki [1] | IC50 [2] | Ki [2] | IC50 ([3]; cho-k1) | IC50 [4] | IC50 ([5]; insect cells) | Ki [3] | IC50 ([3]; read-out: IC50) | IC50 ([5]; read-out: IC50) | Ki [4] | Ki ([5]; insect cells)
1 | Nc1nc2ccc(OC(F)(F)F)cc2s1 [RILUZOLE] | Not Active | Not Active | Not Active | Not Active | Not Active | Not Active | Not Active |  |  |  |  | 
2 | Cc1nc2n(c(=O)c1CCN1CCC(c3noc4cc(F)ccc34)CC1)CCCC2 [RISPERIDONE] |  |  |  |  | Not Active | Not Active | Not Active |  |  |  |  | 
3 | C=CCC1(C(C)CCC)C(=O)NC(=O)NC1=O (stereo not given) [SECOBARBITAL] | Not Active | Not Active | Not Active | Not Active | Not Active | Not Active | Not Active |  |  |  |  | 
4 | C[C@@H]1CN(c2c(F)c(N)c3c(=O)c(C(=O)O)cn(C4CC4)c3c2F)C[C@H](C)N1 [SPARFLOXACIN] | Not Active | Not Active | Not Active | Not Active | Not Active | Not Active | Not Active |  |  |  |  | 
5 | Cc1noc(NS(=O)(=O)c2ccc(N)cc2)c1C [SULFISOXAZOLE] | Not Active | Not Active | Not Active | Not Active | Not Active | Not Active | Not Active |  |  |  |  | 
6 | CSc1ccc(/C=C2/C(C)=C(CC(=O)O)c3cc(F)ccc32)cc1 [SULINDAC SULFIDE] | Not Active | Not Active | Not Active | Not Active |  | Not Active | Not Active | 13.7 µM | 33.7 µM |  |  | 
7 | Nc1c2c(nc3ccccc13)CCCC2 [TACRINE] | Not Active | Not Active | Not Active | Not Active | Not Active | Not Active | Not Active |  |  |  |  | 
8 | CC/C(=C(\c1ccccc1)c1ccc(OCCN(C)C)cc1)c1ccccc1 [TAMOXIFEN] |  |  |  |  |  | Not Active |  | 7.14 µM | 17.6 µM | 8.03 µM |  | 
9 | CC(C)N1CCN(c2ccc(OCC3COC(Cn4cncn4)(c4ccc(Cl)cc4Cl)O3)cc2)CC1 (stereo not given) [TERCONAZOLE] | Not Active | Not Active | Not Active | Not Active | Not Active | Not Active | Not Active |  |  |  |  | 
10 | Nc1nc2nc[nH]c2c(=S)[nH]1 [THIOGUANINE] | Not Active | Not Active | Not Active | Not Active | Not Active | Not Active | Not Active |  |  |  |  | 
11 | Cc1cccc(N(C)C(=S)Oc2ccc3ccccc3c2)c1 [TOLNAFTATE] | Not Active | Not Active | Not Active | Not Active | Not Active | Not Active | Not Active |  |  |  |  | 
12 | NC[C@H]1CC[C@H](C(=O)O)CC1 [TRANEXAMIC ACID] | Not Active | Not Active | Not Active | Not Active | Not Active | Not Active | Not Active |  |  |  |  | 
13 | CC1(C)O[C@@H]2C[C@H]3[C@@H]4CCC5=CC(=O)C=C[C@]5(C)[C@@]4(F)[C@@H](O)C[C@]3(C)[C@]2(C(=O)CO)O1 [TRIAMCINOLONE ACETONIDE] | Not Active | Not Active | Not Active | Not Active | Not Active | Not Active | Not Active |  |  |  |  | 
14 | NS(=O)(=O)c1cc2c(cc1Cl)NC(C(Cl)Cl)NS2(=O)=O (stereo not given) [TRICHLORMETHIAZIDE] | Not Active | Not Active | Not Active | Not Active | Not Active | Not Active | Not Active |  |  |  |  | 
15 | Cc1c(C)c2c(c(C)c1O)CCC(C)(COc1ccc(CC3SC(=O)NC3=O)cc1)O2 (stereo not given) [TROGLITAZONE] | Not Active | Not Active | Not Active | Not Active | Not Active | Not Active | Not Active |  |  |  |  | 
16 | N[C@@H]1[C@H]2CN(c3nc4c(cc3F)c(=O)c(C(=O)O)cn4-c3ccc(F)cc3F)C[C@@H]12 [TROVAFLOXACIN] | Not Active | Not Active | Not Active | Not Active | Not Active | Not Active |  |  |  |  |  | 
17 | N#CC(C#N)=Cc1ccc(O)c(O)c1 [TYRPHOSTIN 23] | Not Active | Not Active | Not Active | Not Active | Not Active | Not Active | Not Active |  |  |  |  | 
18 | SODIUM NITROPRUSSIDE | Not Active | Not Active | Not Active | Not Active |  | Not Active | Not Active |  |  |  | Not Active | Not Active
